Like-named read-outs stand apart in the source and are kept apart here.
Legend:
APP23 mice [1] = assay: 13-week oral safety study in aged APP23 mice: MRI of microhaemorrhagic lesions; assay type: in vivo, mouse; conditions: aged female APP23 mice
Procedure: The APP23 mouse strain was chosen because of the existence of microhaemorrhages in aged animals. Females were chosen because of having a much higher overall Aβ load, a higher Aβ40/Aβ42 ratio and thus more pronounced microhaemorrhages.
β1 antibody administration: intraperitoneal, once weekly. Dosage volume: 0.15 mL/mouse (maximum 10 mL/kg)
Animal species and strain: Mouse; transgenic APP23 (B6.D2-Tg(Thy1App)23/1Sdz)
Sex: Females (females have a much higher overall Aβ load, a higher Aβ40/Aβ42 ratio and thus more pronounced microhaemorrhages)
Age: Approximately 17-18 months (at start of dosing)
For MRI investigations, mice were anesthetized with 1.5% isoflurane (Abbott, Cham, Switzerland) in a mixture of oxygen/N2O (2:1) administered via a face mask and placed in a Plexiglas cradle. […] Respiration was monitored throughout the acquisitions. […]
Acquisition and analysis of the MRI data were performed by a blinded investigator. Sites in the cortex and thalamus presenting signal attenuation with a minimum diameter of 70 μm (lesions) were analyzed throughout the whole brain. To ensure that the same site (lesion) was not counted multiple times, its presence was carefully controlled over several consecutive slices from the 3D data set. The total volume of the lesions was assessed using ImgTool, an IDL (Interactive Data Language Research Systems, Boulder, Colo., USA) based software. […]

[2] = both, APOE4-TR, mouse, in vivo
Procedure: Vehicle or compound was given by oral administration in a volume of 10 ml/kg once. Vehicle: 0.1% Tween80 in 0.5% Methylcellulose in water.
The right brain was fixed in 4% paraformaldehyde, washed in PBS and then embedded in paraffin for possible future histological analyses.

APP23 mice [3] = assay: 13-week oral safety study in aged APP23 mice: post-mortem macroscopic and brain microscopic examination (H&E, Perls' Prussian blue); assay type: in vivo, mouse
Source text: (§1) Sections of brain were collected at necropsy from all scheduled animals. […] Rest of the brain was fixed in 10% neutral-buffered formalin.
Four brain sections were processed and stained with hematoxylin and eosin (H&E) and Perls' Prussian blue for hemosiderin deposits, levels 2, 3, 4, as described in Bolon B et al., 2013, and one additional slide at hypothalamus level (level 2′).
Procedure for brain collection: Cerebellum was separated from cerebrum. Remaining cerebrum (from the anterior to level 5) was transferred into formalin for pathology.
Brain sections stained with haematoxylin and eosin and with Perls' Prussian blue, were examined under a light microscope. The distribution, size and staining intensity of hemosiderin deposits in Perls' Prussian blue-stained sections were assessed based on the grading scheme in Table 37.

[4] = 13-week oral safety study in aged APP23 mice: plasma and brain concentrations of Compound 1 (toxicokinetics); assay type: in vivo; conditions: female, APP23, mouse, 0.3 g/kg food
Procedure: as §1
Blood was obtained from all the animals at necropsy. Approximately 0.3 mL of whole blood was collected after euthanasia from the vena cava into tubes containing EDTA as anticoagulant. The tubes were placed in ice water during the sampling period. Plasma was separated thereafter by centrifugation (10 min, 1270 G, +4° C.) and transferred to one uniquely labelled clear tube (1.8 mL NUNC 2D coded tubes from Thermo) and frozen at −70° C. or below.
About 100 to 200 mg of brain tissue were collected, weighed into 1.8 mL NUNC 2D coded tubes from Thermo, and frozen at −70° C. or below.

[5] = 13-week oral safety study in aged APP23 mice: body weight; assay type: in vivo, mouse; conditions: chronic treatment, 13 weeks; aged female APP23 mice
Procedure: Body weight range: 26 to 36 g (at start of dosing)
Means and standard deviations (SD), standard error of the mean (SEM) and coefficient of variation (CV) as indicated accordingly were calculated and an Analysis of Variance (ANOVA) performed. For the analysis of body weights a 2way ANOVA with Turkey's multiple comparison test was performed using GraphPad Prism 6. ANOVA with random effects statistical analyses were performed on MRI data using Systat Version 13 (Systat Software, Inc., San Jose, Calif., USA).

[6] = First-in-human study: safety and tolerability; assay type: in vivo; conditions: healthy elderly subjects ≥60 years
Source text: (§2) The purpose of this study was to determine the single and multiple maximum tolerated dose of Compound 1 and to assess the pharmacokinetic/pharmacodynamic (PK/PD) relationship using Aβ in CSF as primary PD biomarker.

[7] = 3-month dose-ranging safety and tolerability study; assay type: in vivo, human; conditions: once-daily doses of 2, 10, 35 and 85 mg over three months; healthy elderly
Source text: This study is listed in ClinicalTrials.gov under the NCT02576639 Identifier code.
The primary purpose of this study was to expand on previous safety and tolerability data obtained over 2-week and 4-week duration in the first in human study and thereby allow initiation of future long-term efficacy trials in subjects at risk of AD and CAA. In addition, data relevant for Pharmacokinetic/Pharmacodynamic modeling was obtained in order to support dose selection decisions for future efficacy studies.

Aβ40 in CSF = assay: First-in-human single and multiple ascending oral dose study: Aβ40 in CSF; assay type: in vivo; conditions: for Dose-dependent lowering of Aβ40 concentrations in CSF, up to: healthy elderly subjects
Procedure: as §2
Pharmacodynamic assessments using Aβ concentrations in CSF as primary biomarker of drug action were also been applied in healthy elderly subjects. Dose-dependent lowering of Aβ40 concentrations was determined up to approximately 80% and 90% after single and multiple dosing, respectively (Tables 9 and 10, FIG. 7).
In the completed first-in-human and 3-month dose-ranging safety and tolerability clinical studies described in Examples 3 and 4, Aβ concentrations in CSF were obtained by means of lumbar punctures before the first dose (baseline) and respectively after 2 weeks and 3 months of multiple dosing. ApoE4 genotype also was obtained in the subjects who consented. The percent change from baseline in Aβ40 and Aβ42 concentrations was calculated in subjects who took the study treatment and had no major protocol deviation with potential impact on the evaluation of the pharmacodynamic effect. Tables 13 to 16 below provide summary statistics of the percent change from baseline by treatment group and ApoE genotype (E4 heterozygotes versus E4 non-carriers). Only one subject with CSF data was E4 homozygote (from the 3-month dose-ranging safety and tolerability study).

[8] = aged APP23 mice, brain, H&E, after 3 months treatment
[9] = aged APP23 mice, brain, H&E, after 3 months treatment, Grade 1 = minimal
[10] = aged APP23 mice, brain, H&E, after 3 months treatment, grade 2 = slight
[11] = aged APP23 mice, brain, after 3 months treatment
[12] = aged APP23 mice, brain, after 3 months treatment, Grade 1 = minimal
[13] = aged APP23 mice, brain, after 3 months treatment, grade 2 = slight

## C[C@@]1(c2nc(NC(=O)c3ncc(C(F)(F)F)cc3Cl)ccc2F)CO[C@@](C)(C(F)(F)F)C(N)=N1 [Compound 1, N-(6-((3R,6R)-5-amino-3,6-dimethyl-6-(trifluoromethyl)-3,6-dihydro-2H-1,4-oxazin-3-yl)-5-fluoropyridin-2-yl)-3-chloro-5-(trifluoromethyl)picolinamide]
APP23 mice [1]; 1, 2 and 3 months of treatment
  total lesion volume detected by MRI: did not exacerbate lesion volumes
APP23 mice [1]; month 3
  lesion numbers (mean±SEM) by MRI: 11.5±2.0
[2]
  exposure reduction 4 h/24 h: 2-5 fold
[2]; 3 umol/kg
  AUCbrain (AUC0-24 h): 8.67 µmol·h/kg
[2]; 10 umol/kg
  AUCbrain (AUC0-24 h): 15.83 µmol·h/kg
[2]; 30 umol/kg
  AUCbrain (AUC0-24 h): 49.82 µmol·h/kg
APP23 mice [3]; 3 months treatment
  Blood vessel inflammation: least marked
  mineralisation of plaques in the thalamus: no indication of an effect
  thrombus formation in affected blood vessels or small areas of previous necrosis (infarct): not
APP23 mice [3]; 3 months treatment, compared to the other groups
  extent of plaque formation: appeared reduced in some
APP23 mice [3]; [8]
  Amyloid plaques, % affected: 100%
  Haemorrhage, % affected: 7%
  Inflammation, vessel, % affected: 27%
APP23 mice [3]; [9]
  Haemorrhage, number of animals with Grade 1: 1
  Inflammation, vessel, number of animals with Grade 1: 4
APP23 mice [3]; [10]
  Haemorrhage, number of animals with Grade 2: 0
  Inflammation, vessel, number of animals with Grade 2: 0
APP23 mice [3]; aged APP23 mice, brain, H&E, after 3 months treatment, grade 2 = slight (notably fewer plaques than controls)
  Amyloid plaques, number of animals with Grade 2: 4
APP23 mice [3]; aged APP23 mice, brain, H&E, after 3 months treatment, grade 3 = moderate (extent in controls)
  Amyloid plaques, number of animals with Grade 3: 11
APP23 mice [3]; [11]
  Haemosiderin (Perls' staining), % affected: 47%
  Infarct, % affected: 0%
  Mineralisation, % affected: 13%
  Thrombus, % affected: 0%
APP23 mice [3]; [12]
  Haemosiderin (Perls' staining), number of animals with Grade 1: 7
  Infarct, number of animals with Grade 1: 0
  Mineralisation, number of animals with Grade 1: 2
  Thrombus, number of animals with Grade 1: 0
APP23 mice [3]; [13]
  Haemosiderin (Perls' staining), number of animals with Grade 2: 0
  Mineralisation, number of animals with Grade 2: 0
  Thrombus, number of animals with Grade 2: 0
APP23 mice [3]; aged APP23 mice, brain, after 3 months treatment, grade 3 = moderate
  Haemosiderin (Perls' staining), number of animals with Grade 3: 0
[4]; brain (cerebellum, level 7), end of the study
  concentration at 13 weeks: 4030 ng/g
[4]; brain / plasma, day 96, read-out: brain concentration compared to plasma, range
  Kp at 96 day: 2.2 to 6.1
[4]; brain / plasma, end of the study, read-out: average of the ratio brain over plasma
  Kp at 13 weeks: 3.3
[4]; plasma, end of the study
  concentration at 13 weeks: 1210 ng/mL
[5]
  body weight: did not lead to any change in body weight
[6]; 300 mg QD over two weeks
  safety and tolerability: safe and tolerated
[6]; 750 mg single dose
  safety and tolerability: safe and tolerated
[7]
  safety and tolerability: safe and tolerated
Aβ40 in CSF; multiple dosing
  Dose-dependent lowering of Aβ40 concentrations in CSF, up to: ~90%
Aβ40 in CSF; single dose 10 mg, 24 h
  Aβ40 in CSF percent change from baseline, Median: −14.3%
Aβ40 in CSF; single dosing
  Dose-dependent lowering of Aβ40 concentrations in CSF, up to: approximately 80%

From patent US10722518B2, “Oxazine derivative for use in the treatment or prevention of cerebral amyloid angiopathy” (Novartis AG, priority 2016, dated 2020)
